What was measured:
Assay in all cases: Ex vivo AML PDX cell viability (Cell Titer Glo)
Type in all cases: cell-based
CTG-3680 = settings: Homo sapiens, 144 h; PDX model CTG-3680, 6 days; read-out: HC-7366 EC50
Protocol: (§1) . Cell viability was assayed after treating PDX models with DMSO or HC-7366 for 6 days using a plate-based luminescence assay (Cell Titer Glo). […]
(§2) EC50 values were calculated to the bottom of the curve and are provided below. Viability curves are provided for the models CTG-2229 (FIG. 81), CTG-3680 (FIG. 82), CTG-3667 (FIG. 83), CTG-2456 (FIG. 84), CTG-2457 (FIG. 85), and CTG-2454 (FIG. 86).

CTG-2238 = settings: Homo sapiens, 144 h; PDX model CTG-2238, 6 days; read-out: HC-7366 EC50
Protocol: as §1, §2

CTG-2455 = settings: Homo sapiens, 144 h; PDX model CTG-2455, 6 days; read-out: HC-7366 EC50
Protocol: as §1, §2

CTG-2456 = settings: Homo sapiens, 144 h; PDX model CTG-2456, 6 days; read-out: HC-7366 EC50
Protocol: as §1, §2

CTG-3679 = settings: Homo sapiens, 144 h; PDX model CTG-3679, 6 days; read-out: HC-7366 EC50
Protocol: as §1, §2

CTG-2235 = settings: Homo sapiens, 144 h; PDX model CTG-2235, 6 days; read-out: HC-7366 EC50
Protocol: as §1, §2

CTG-2239 = settings: Homo sapiens, 144 h; PDX model CTG-2239, 6 days; read-out: HC-7366 EC50
Protocol: as §1, §2

CTG-2233 = settings: Homo sapiens, 144 h; PDX model CTG-2233, 6 days; read-out: HC-7366 EC50
Protocol: as §1, §2

CTG-2453 = settings: Homo sapiens, 144 h; PDX model CTG-2453, 6 days; read-out: HC-7366 EC50
Protocol: as §1, §2

CTG-2775 = settings: Homo sapiens, 144 h; PDX model CTG-2775, 6 days; read-out: HC-7366 EC50
Protocol: as §1, §2

CTG-2774 = settings: Homo sapiens, 144 h; PDX model CTG-2774, 6 days; read-out: HC-7366 EC50
Protocol: as §1, §2

CTG-3673 = settings: Homo sapiens, 144 h; PDX model CTG-3673, 6 days; read-out: HC-7366 EC50
Protocol: as §1, §2

CTG-2234 = settings: Homo sapiens, 144 h; PDX model CTG-2234, 6 days; read-out: HC-7366 EC50
Protocol: as §1, §2

CTG-3674 = settings: Homo sapiens, 144 h; PDX model CTG-3674, 6 days; read-out: HC-7366 EC50
Protocol: as §1, §2

CTG-2232 = settings: Homo sapiens, 144 h; PDX model CTG-2232, 6 days; read-out: HC-7366 EC50
Protocol: as §1, §2

CTG-3441 = settings: Homo sapiens, 144 h; PDX model CTG-3441, 6 days; read-out: HC-7366 EC50
Protocol: as §1, §2

CTG-2236 = settings: Homo sapiens, 144 h; PDX model CTG-2236, 6 days; read-out: HC-7366 EC50
Protocol: as §1, §2

CTG-2457 = settings: Homo sapiens, 144 h; PDX model CTG-2457, 6 days; read-out: HC-7366 EC50
Protocol: as §1, §2

CTG-3440 = settings: Homo sapiens, 144 h; PDX model CTG-3440, 6 days; read-out: HC-7366 EC50
Protocol: as §1, §2

CTG-2227 = settings: Homo sapiens, 144 h; PDX model CTG-2227, 6 days; read-out: HC-7366 EC50
Protocol: as §1, §2

CTG-3439 = settings: Homo sapiens, 144 h; PDX model CTG-3439, 6 days; read-out: HC-7366 EC50
Protocol: as §1, §2

CTG-2700 = settings: Homo sapiens, 144 h; PDX model CTG-2700, 6 days; read-out: HC-7366 EC50
Protocol: as §1, §2

CTG-3438 = settings: Homo sapiens, 144 h; PDX model CTG-3438, 6 days; read-out: HC-7366 EC50
Protocol: as §1, §2

**Q.** With `CNC(=O)c1ncn2cc(-c3c(F)ccc(NS(=O)(=O)c4cc(Cl)cnc4OC)c3F)ncc12` [HC-7366, 6-(3-((5-chloro-2-methoxypyridine)-3-sulfonamido)-2,6-difluorophenyl)-N-methylimidazo[1,5-a]pyrazine-1-carboxamide] as the compound, how does the EC50 (CTG-3680) read?
**A.** 231 µM

**Q.** What about the EC50 (CTG-2238) of the same compound?
**A.** 123 µM

**Q.** What about the EC50 (CTG-2455) of the same compound?
**A.** 35.7 µM

**Q.** What about the EC50 (CTG-2456) of the same compound?
**A.** 31.8 µM

**Q.** What about the EC50 (CTG-3679) of the same compound?
**A.** 107 µM

**Q.** And the EC50 (CTG-2235)?
**A.** 103 µM

**Q.** What about the EC50 (CTG-2239) of the same compound?
**A.** 1170 µM

**Q.** What about the EC50 (CTG-2233) of the same compound?
**A.** 102 µM

**Q.** And the EC50 (CTG-2453)?
**A.** 180 µM

**Q.** What about the EC50 (CTG-2775) of the same compound?
**A.** 43.4 µM

**Q.** And the EC50 (CTG-2774)?
**A.** 96.9 µM

**Q.** What about the EC50 (CTG-3673) of the same compound?
**A.** 65.6 µM

**Q.** What about the EC50 (CTG-2234) of the same compound?
**A.** 65.5 µM

**Q.** And the EC50 (CTG-3674)?
**A.** 129 µM

**Q.** What about the EC50 (CTG-2232) of the same compound?
**A.** 84.3 µM

**Q.** And the EC50 (CTG-3441)?
**A.** 102 µM

**Q.** And the EC50 (CTG-2236)?
**A.** 36.5 µM

**Q.** And the EC50 (CTG-2457)?
**A.** 248 µM

**Q.** And the EC50 (CTG-3440)?
**A.** 55.2 µM

**Q.** What about the EC50 (CTG-2227) of the same compound?
**A.** 39.9 µM

**Q.** And the EC50 (CTG-3439)?
**A.** 349 µM

**Q.** What about the EC50 (CTG-2700) of the same compound?
**A.** 333 µM

**Q.** What about the EC50 (CTG-3438) of the same compound?
**A.** 196 µM

— US20250339426A1, “GCN2 MODULATOR FOR TREATING CANCER” (HIBERCELL, INC., priority 2022, published 2025)
